Data reported in PubChem BioAssay AID602128 (The Scripps Research Institute Molecular Screening Center, 2011).
The source made the active and inactive calls. No rule for the calls is given here.

Target: Mucolipin-3 (Homo sapiens) (UniProt Q8TDD5)
Experiment: TRPML3 agonist potency, SAR follow-up, cell-based, HEK293, calcium fluorescence, analogs, round 2 (AID 602128)
Conditions: HEK293 TRPML3 cells

Mucolipin-3 (Homo sapiens), sequence (Q8TDD5 whole entry, looked up): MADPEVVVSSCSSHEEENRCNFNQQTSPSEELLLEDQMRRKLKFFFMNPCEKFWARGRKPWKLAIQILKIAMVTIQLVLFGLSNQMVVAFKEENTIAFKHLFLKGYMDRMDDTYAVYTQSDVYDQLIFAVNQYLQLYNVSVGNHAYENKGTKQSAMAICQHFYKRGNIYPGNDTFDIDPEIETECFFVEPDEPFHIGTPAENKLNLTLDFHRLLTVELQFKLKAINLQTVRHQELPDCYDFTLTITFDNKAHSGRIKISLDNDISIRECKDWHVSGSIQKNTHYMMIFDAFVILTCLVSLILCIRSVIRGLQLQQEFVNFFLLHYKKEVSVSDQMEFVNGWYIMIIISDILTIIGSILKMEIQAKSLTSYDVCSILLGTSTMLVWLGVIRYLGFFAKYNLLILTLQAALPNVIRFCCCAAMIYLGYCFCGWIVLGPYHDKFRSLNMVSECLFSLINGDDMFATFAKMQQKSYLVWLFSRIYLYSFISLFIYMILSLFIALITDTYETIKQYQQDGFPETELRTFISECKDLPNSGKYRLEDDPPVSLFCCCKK

EC50	Compound
> 29900 nM (inactive)	Cc1ccc(S(=O)(=O)n2nccc2-c2c(-c3ccc(Cl)cc3)noc2C)cc1
291 nM	Cc1ccc(S(=O)(=O)n2ccc(-c3c(-c4ccc(Cl)cc4)noc3C)n2)cc1
